Activity and IC50 data for four compounds are collected here from ChEMBL document CHEMBL1153773, “Structure-activity relationship of seco-tanapartholides isolated from Achillea falcata for inhibition of HaCaT cell growth” (Eur J Med Chem, 2009).

Each structure is given as a SMILES string. Converted amounts (≈) assume the structure as drawn. The source made the active and inactive calls. The rule behind the calls is not given here.

Data set [1] concerns HaCaT. Kind of data set: Cytotoxicity against human HaCaT cells assessed as lactate dehydrogenase release at 5 ug/ml after 6 hrs by ELISA. It counts as functional.
Data set [2] deals with HaCaT. Put plainly: Cytotoxicity against human HaCaT cells assessed as lactate dehydrogenase release at 20 ug/ml after 6 hrs by ELISA. It counts as functional.
The subject of data set [3] is HaCaT. Put plainly: Cytotoxicity against human HaCaT cells assessed as lactate dehydrogenase release at 50 ug/ml after 6 hrs by ELISA. It counts as functional.
Data set [4] has as its system HaCaT. Kind of data set: Cytotoxicity against human HaCaT cells assessed as lactate dehydrogenase release at 100 ug/ml after 6 hrs by ELISA. It counts as functional. (In general: In an ELISA, binding on a coated surface is turned into a signal by an enzyme label.)
In data set [5] the test system is HaCaT. Kind of data set: Cytotoxicity against human HaCaT cells assessed as lactate dehydrogenase release at 75 ug/ml after 6 hrs by ELISA. It counts as functional.
Data set [6] deals with HaCaT. Put plainly: Cytotoxicity against human HaCaT cells after 24 hrs by MTT assay. In kind it is functional, cell-based.
In data set [7] the test system is HaCaT. Put plainly: Cytotoxicity against human HaCaT cells assessed as lactate dehydrogenase release at 10 ug/ml after 6 hrs by ELISA. In kind it is functional.
For data set [8], the system named is HaCaT. Kind of data set: Cytotoxicity against human HaCaT cells assessed as lactate dehydrogenase release at 25 ug/ml after 6 hrs by ELISA. In kind it is functional.
Data set [9] relates to HaCaT. Kind of data set: Cytotoxicity against human HaCaT cells assessed as lactate dehydrogenase release at 15 ug/ml after 6 hrs by ELISA. It counts as functional.
Data set [10] is described as follows: Cytotoxicity against human Keratinocyte cells assessed as reduction in cell viability at 5 ug/ml after 24 hrs by MTT assay. It counts as cell-based. (Formazan colour is commonly taken as a measure of viable cells.)
Data set [11] relates to HaCaT. Kind of data set: Cytotoxicity against human HaCaT cells assessed as reduction in cell viability at 5 ug/ml after 24 hrs by MTT assay. It counts as functional.
Data set [12] has as its system HaCaT. Kind of data set: Cytotoxicity against human HaCaT cells assessed as reduction in cell viability at 10 ug/ml after 24 hrs by MTT assay. It counts as functional.
Data set [13] has as its system HaCaT. Put plainly: Cell cycle arrest in human HaCaT cells assessed as accumulation at G2/M phase after 24 hrs. It counts as functional, cell-based.
A short description of data set [14]: Cytotoxicity against human Keratinocyte cells assessed as reduction in cell viability at 10 ug/ml after 24 hrs by MTT assay. It counts as cell-based.
Data set [15] is described as follows: Cytotoxicity against human keratinocytes at 25 ug/ml. Particulars: keratinocyte. In kind it is cell-based.

For `C=C1C(=O)O[C@H](C2=C(C)C(O)CC2=O)[C@@H]1CCC(C)=O` (mixture of isomers), the Activity with HaCaT [1] was 2%; with HaCaT [2], 5%; with HaCaT [3], 0%; in the data set with HaCaT [4], 0%; in the data set with HaCaT [5], 0%; with HaCaT [6] it was “Dose-dependent effect”. The values for the Activity with HaCaT [7], in the data set on HaCaT [8] and in the data set on HaCaT [9] were 3%, 3% and 2%, respectively. In the data set with HaCaT [6], this compound yielded an IC50 of 19.1 µg/mL.

On to `C=C1C(=O)O[C@H](C2=C(C)C(OC)CC2=O)[C@@H]1[C@@H](O)CC(C)=O` (stereo not given in full), for which the Activity in the data set on HaCaT [1] was 4%; in the data set with HaCaT [2], 4%; with HaCaT [3], 2%; in the data set on HaCaT [4], 0%; in the data set with HaCaT [5], 1%; with HaCaT [6], “Dose-dependent effect”. In addition, the results for the Activity with HaCaT [7], in the data set on HaCaT [8] and in the data set with HaCaT [9] were 4%, 5% and 4%, respectively. The IC50 in the data set with HaCaT [6] was 16.7 µg/mL (≈ 54.2 µM).

With `C=C1C(=O)O[C@H](C2=C(C)[C@@H](O)CC2=O)[C@@H]1CCC(C)=O`, the Activity is 4% in the data set with HaCaT [1]; 11% in the data set with HaCaT [2]; 0% in the data set with HaCaT [3]; 2% in the data set with HaCaT [5]; “Dose-dependent effect” with HaCaT [6]; 18% with HaCaT [7]. Also, the Activity is on record as 11% with HaCaT [8] and 0% in the data set on HaCaT [9]. In addition, the 50% inhibitory concentration (IC50) in the data set with HaCaT [6] came out at 13 µg/mL (≈ 46.7 µM).

As to `C=C1C(=O)O[C@H](C2=C(C)[C@@H](OC)CC2=O)[C@@H]1CCC(C)=O`, the Activity in the data set on HaCaT [1] is 7%; in data set [10], more than 10%; in the data set on HaCaT [11] it was 44%; with HaCaT [2] it was 5%; in the data set on HaCaT [3], 0%; in the data set on HaCaT [12], 66%. The Activity in the data set on HaCaT [4] is 0%; in the data set on HaCaT [5] it was 0%; in the data set with HaCaT [6], “Dose-dependent effect”; in the data set on HaCaT [7], 7%; in the data set with HaCaT [8] it was 7%; in the data set on HaCaT [9], 7%. Also, the Activity is on record as more than 10% in data set [14] and “Toxic” in [15]. Moreover, the IC50 in the data set on HaCaT [6] turned out to be 7.1 µg/mL (≈ 24.3 µM). For the same compound, the result in the data set on HaCaT [13] was Active.

Usually IC50 stands for the midpoint of a concentration-inhibition curve.
